# Laboratory results as given in the kinase profiling compilation of Christmann-Franck et al. (2016).
# How the values were obtained:
# Test in all cases: radiometric filter-binding kinase assay
# [1] = molecular target: MAPK14 (human) (UniProt Q16539); conditions: compound 10.0 µM; ATP 50 µM
# [2] = molecular target: CSNK1D (human) (UniProt P48730); conditions: compound 1.0 µM; ATP 20 µM
# [3] = test system: SRC (chicken); conditions: ATP 50 µM, accession and sequence are those of the human protein
# [4] = molecular target: CSNK2A1 or CSNK2A2 (human) (UniProt P19784+P68400); conditions: compound 1.0 µM; ATP 5 µM
# [5] = molecular target: MAPK11 (human) (UniProt Q15759); conditions: compound 1.0 µM; ATP 20 µM
# [6] = molecular target: PAK7 (human) (UniProt Q9P286); conditions: compound 1.0 µM; ATP 20 µM
# [7] = molecular target: PDPK1 (human) (UniProt O15530); conditions: compound 1.0 µM
# [8] = molecular target: PRKCG (human) (UniProt P05129); conditions: compound 1.0 µM; ATP 5 µM
# [9] = molecular target: PHKG1 or PHKG2 (human) (UniProt P15735+Q16816); conditions: compound 1.0 µM; ATP 50 µM
# [10] = molecular target: MAPK9 (human) (UniProt P45984); conditions: compound 25.0 µM; ATP 20 µM
# [11] = test system: AKT1 (human), P31749 [S473D]; conditions: compound 10.0 µM; ATP 5 µM
# [12] = molecular target: PKN2 (human) (UniProt Q16513); conditions: compound 10.0 µM; ATP 5 µM
# PKN2 (human), sequence (Q16513 whole entry, looked up): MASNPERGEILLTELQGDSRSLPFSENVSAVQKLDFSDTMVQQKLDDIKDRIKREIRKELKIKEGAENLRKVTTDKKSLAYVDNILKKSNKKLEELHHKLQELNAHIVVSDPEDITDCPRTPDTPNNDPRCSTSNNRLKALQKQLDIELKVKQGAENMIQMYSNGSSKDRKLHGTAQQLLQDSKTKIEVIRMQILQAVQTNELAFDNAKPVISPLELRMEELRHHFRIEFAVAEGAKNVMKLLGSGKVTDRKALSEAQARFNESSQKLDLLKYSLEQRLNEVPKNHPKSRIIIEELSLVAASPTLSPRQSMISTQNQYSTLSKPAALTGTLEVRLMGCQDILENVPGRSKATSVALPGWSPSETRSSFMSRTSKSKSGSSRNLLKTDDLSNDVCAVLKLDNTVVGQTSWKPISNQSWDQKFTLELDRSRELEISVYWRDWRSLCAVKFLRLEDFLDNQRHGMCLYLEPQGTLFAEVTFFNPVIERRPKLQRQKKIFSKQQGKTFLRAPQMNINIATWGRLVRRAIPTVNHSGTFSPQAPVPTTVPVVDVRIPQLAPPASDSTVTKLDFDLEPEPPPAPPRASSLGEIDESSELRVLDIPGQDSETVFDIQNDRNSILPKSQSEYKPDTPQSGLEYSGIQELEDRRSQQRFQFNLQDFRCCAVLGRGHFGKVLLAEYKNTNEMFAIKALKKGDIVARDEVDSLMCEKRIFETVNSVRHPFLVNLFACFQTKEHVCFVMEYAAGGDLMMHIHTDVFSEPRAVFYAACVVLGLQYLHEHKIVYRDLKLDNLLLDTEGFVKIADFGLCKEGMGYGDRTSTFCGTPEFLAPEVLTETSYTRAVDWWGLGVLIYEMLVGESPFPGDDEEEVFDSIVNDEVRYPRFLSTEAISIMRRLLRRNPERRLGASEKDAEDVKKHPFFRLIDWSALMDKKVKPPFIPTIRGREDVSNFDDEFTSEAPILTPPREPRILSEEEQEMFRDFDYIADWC
# PDPK1 (human), sequence (O15530 whole entry, looked up): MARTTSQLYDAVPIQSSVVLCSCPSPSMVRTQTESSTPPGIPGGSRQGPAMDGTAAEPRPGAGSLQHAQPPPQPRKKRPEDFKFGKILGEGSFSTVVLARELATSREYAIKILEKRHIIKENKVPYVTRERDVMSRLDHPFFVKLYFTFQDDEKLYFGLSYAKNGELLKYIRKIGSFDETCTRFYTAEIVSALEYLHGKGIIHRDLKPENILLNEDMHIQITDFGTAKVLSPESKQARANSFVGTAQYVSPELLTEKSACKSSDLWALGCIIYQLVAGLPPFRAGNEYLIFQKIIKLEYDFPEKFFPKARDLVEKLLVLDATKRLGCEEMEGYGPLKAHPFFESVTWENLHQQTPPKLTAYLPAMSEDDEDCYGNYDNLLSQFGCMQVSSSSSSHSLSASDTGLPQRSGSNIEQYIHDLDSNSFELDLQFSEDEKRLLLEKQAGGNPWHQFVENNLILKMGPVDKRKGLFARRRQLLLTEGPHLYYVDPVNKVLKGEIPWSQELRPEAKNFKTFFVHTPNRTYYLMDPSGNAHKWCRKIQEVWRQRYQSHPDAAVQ
# CSNK1D (human), sequence (P48730 whole entry, looked up): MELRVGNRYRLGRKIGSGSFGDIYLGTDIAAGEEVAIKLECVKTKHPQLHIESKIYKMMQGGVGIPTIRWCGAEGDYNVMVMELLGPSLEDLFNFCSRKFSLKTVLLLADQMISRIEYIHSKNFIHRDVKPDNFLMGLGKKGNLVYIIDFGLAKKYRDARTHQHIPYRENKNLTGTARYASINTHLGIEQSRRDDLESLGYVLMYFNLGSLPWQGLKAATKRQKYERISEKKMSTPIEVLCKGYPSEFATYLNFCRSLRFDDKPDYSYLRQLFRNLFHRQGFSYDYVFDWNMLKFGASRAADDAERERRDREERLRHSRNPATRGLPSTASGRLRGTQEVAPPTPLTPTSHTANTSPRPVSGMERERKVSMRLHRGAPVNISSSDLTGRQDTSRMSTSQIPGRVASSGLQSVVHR
# AKT1 (human), P31749 [S473D], sequence (P31749 whole entry S473D, looked up): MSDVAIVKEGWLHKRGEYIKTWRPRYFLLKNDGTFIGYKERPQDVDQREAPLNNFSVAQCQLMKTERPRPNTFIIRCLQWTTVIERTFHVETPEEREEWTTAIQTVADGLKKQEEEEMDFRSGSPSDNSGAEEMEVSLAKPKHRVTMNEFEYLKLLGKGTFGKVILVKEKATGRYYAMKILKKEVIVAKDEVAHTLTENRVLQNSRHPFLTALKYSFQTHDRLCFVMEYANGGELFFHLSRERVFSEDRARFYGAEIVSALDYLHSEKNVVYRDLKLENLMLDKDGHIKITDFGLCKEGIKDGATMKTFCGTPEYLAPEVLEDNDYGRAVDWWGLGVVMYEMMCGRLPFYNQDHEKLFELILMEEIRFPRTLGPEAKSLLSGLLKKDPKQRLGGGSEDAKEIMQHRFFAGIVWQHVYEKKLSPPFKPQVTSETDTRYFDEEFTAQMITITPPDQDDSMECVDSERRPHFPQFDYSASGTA
# MAPK11 (human), sequence (Q15759 whole entry, looked up): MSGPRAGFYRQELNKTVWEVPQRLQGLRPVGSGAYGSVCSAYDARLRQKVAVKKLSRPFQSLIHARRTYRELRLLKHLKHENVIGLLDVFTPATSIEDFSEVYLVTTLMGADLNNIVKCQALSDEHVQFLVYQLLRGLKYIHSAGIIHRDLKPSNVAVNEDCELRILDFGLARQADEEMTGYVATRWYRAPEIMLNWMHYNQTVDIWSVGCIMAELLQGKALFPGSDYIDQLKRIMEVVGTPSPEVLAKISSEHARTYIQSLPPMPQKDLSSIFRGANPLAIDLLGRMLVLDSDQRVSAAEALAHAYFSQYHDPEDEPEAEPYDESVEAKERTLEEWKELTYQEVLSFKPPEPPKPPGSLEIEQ
# MAPK9 (human), sequence (P45984 whole entry, looked up): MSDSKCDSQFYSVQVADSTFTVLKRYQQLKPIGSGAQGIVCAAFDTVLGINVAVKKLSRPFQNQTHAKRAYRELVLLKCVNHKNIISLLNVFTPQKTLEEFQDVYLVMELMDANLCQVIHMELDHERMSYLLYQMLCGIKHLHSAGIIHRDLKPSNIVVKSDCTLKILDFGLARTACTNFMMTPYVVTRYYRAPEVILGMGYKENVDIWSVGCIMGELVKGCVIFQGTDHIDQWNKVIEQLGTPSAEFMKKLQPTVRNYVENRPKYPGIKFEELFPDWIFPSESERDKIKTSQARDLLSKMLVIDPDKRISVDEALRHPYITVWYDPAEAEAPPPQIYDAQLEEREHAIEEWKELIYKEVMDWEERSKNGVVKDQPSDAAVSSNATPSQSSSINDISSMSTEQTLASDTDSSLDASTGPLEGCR
# PHKG1 or PHKG2 (human), sequence (P15735 whole entry, looked up): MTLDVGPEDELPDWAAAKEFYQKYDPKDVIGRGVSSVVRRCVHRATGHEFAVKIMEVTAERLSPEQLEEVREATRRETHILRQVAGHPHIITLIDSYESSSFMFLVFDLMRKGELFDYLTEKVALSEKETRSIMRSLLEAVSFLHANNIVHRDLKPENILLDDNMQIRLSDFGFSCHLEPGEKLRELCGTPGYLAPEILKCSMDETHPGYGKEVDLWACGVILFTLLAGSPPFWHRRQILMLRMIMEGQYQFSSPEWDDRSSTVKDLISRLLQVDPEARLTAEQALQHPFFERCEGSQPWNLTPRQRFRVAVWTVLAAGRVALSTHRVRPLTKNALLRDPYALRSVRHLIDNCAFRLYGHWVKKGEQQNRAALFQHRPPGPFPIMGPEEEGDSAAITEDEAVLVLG
# PHKG1 or PHKG2 (human), sequence (Q16816 whole entry, looked up): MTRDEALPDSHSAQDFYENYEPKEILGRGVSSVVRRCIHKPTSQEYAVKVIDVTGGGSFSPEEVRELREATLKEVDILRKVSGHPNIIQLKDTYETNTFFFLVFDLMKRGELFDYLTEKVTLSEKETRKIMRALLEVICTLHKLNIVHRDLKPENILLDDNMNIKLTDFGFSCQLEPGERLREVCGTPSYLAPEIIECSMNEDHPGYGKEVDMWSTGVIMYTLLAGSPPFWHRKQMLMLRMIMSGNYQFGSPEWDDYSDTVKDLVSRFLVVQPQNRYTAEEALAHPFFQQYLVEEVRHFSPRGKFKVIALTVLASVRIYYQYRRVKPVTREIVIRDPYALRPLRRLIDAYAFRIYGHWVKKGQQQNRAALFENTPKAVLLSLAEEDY
smiles,measurement,setting,value
Cc1ccc(NC(=O)c2cccc(N(C)C)c2)cc1NC(=O)c1ccc(O)cc1,residual activity,[1],8%
COc1ccc2c(c1)[nH]c1c(C)nccc12,residual activity,[2],60%
CC(C)(C)n1nc(-c2cccc3ccccc23)c2c(N)ncnc21,residual activity,[3]; compound 1.0 µM,20%
CC[C@@H](CO)Nc1nc(NCc2ccccc2)c2ncn(C(C)C)c2n1,residual activity,[4],92%
same,residual activity,[5],94%
same,residual activity,[6],74%
same,residual activity,[7]; ATP 20 µM,80%
same,residual activity,[7]; ATP 50 µM,90%
same,residual activity,[8],82%
same,residual activity,[9],93%
COc1cc(OC)c(/C=C2\C(=O)Nc3ccccc32)c(OC)c1,residual activity,[10],101%
NC(=O)c1ccc(-c2nc(-c3ccccn3)c(-c3ccc4c(c3)OCCO4)[nH]2)cc1,residual activity,[11],107%
same,residual activity,[12],107%
CN(C)S(=O)(=O)c1ccc2c(c1)/C(=C/c1cc3c([nH]1)CCCC3)C(=O)N2,IC50,[3],100 nM
